Drawing on patent US9221809B2 (MERCK SHARP & DOHME CORP., priority 2011, dated 2015), this text covers IC50 for 23 molecules.

For this assay, the target named is IRAK4 (Homo sapiens (Human), UniProt Q9NWZ3). Nature of the assay: IRAK4 kinase activity, IMAP fluorescence polarization assay. It counts as biochemical. The settings on record: 100 μM ATP. The procedure, abridged:
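GST-tagged IRAK4 at 0.5 nM phosphorylates 100 nM fluorescent peptide substrate with 100 μM ATP in pH 7.2 Tris buffer containing MgCl2, DTT and Tween 20, 30 min at 25 °C. Reaction stopped with IMAP binding reagent; phosphorylation read as increased fluorescence polarization.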

Where [1] appears, read: 0.5 nM GST tagged IRAK4, read-out: IRAK4 IC50.

Where a name gives a salt, the structure may show the parent alone. Read-outs that look alike come from different tables or passages of the source.

Chain of IRAK4 (Q9NWZ3 whole entry): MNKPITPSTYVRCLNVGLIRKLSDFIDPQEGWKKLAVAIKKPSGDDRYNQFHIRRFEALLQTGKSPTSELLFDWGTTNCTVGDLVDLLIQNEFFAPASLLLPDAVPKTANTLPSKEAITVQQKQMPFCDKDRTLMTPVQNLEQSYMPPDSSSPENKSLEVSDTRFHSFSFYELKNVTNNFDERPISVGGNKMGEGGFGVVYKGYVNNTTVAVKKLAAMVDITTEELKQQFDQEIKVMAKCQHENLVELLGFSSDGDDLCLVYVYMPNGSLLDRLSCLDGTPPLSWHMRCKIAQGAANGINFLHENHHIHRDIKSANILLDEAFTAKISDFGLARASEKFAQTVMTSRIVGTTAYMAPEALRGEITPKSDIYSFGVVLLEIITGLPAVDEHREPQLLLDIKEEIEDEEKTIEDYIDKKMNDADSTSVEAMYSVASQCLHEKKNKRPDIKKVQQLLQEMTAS

In general, IC50 refers to the midpoint of a concentration-inhibition curve. Take `Cc1cccc2nc(-c3c(N[C@@H]4CCCNC4)nc(N4CCOCC4)[nH]c3=O)sc12` [Example 340, (R)-5-(7-methylbenzo[d]thiazol-2-yl)-2-morpholino-6-(piperidin-3-ylamino)pyrimidin-4(3H)-one]: the IC50 under setting [1] is 580 nM.

Take `C[C@@]1(O)[C@H](O)[C@@H](CO)C[C@H]1Nc1nc(NC2CCC2)[nH]c(=O)c1-c1nc2ccccc2s1` [Example 41, 5-(Benzo[d]thiazol-2-yl)-2-(cyclobutylamino)-6-((1R,2S,3R,4R)-2,3-dihydroxy-4-(hydroxymethyl)-2-methylcyclopentylamino)pyrimidin-4(3H)-one.HCl]: the concentration for half-maximal inhibition (IC50) under setting [1] was determined as 459 nM. As to `Cn1cc(N2CCN(c3nc(N[C@@H]4CCCNC4)c(-c4nc5ccccc5s4)c(=O)[nH]3)CC2)cn1` [Example 159, (R)-5-(benzo[d]thiazol-2-yl)-2-(4-(1-methyl-1H-pyrazol-4-yl)piperazin-1-yl)-6-(piperidin-3-ylamino)pyrimidin-4(3H)-one], the 50% inhibitory concentration (IC50) (read-out: IRAK4 IC50) was 20 nM. With `O=c1[nH]c(N2CCC(CO)CC2)nc(N[C@@H]2CCCNC2)c1-c1nc2ccccc2s1` [Example 305, 5-(1,3-benzothiazol-2-yl)-2-[4-(hydroxymethyl)piperidin-1-yl]-6-[[(3R)-piperidin-3-yl]amino]-3,4-dihydropyrimidin-4-one], the half-inhibitory concentration (IC50) (read-out: IC50) was 62 nM. In the case of `O=c1[nH]c(N2CC3(CNC3)C2)nc(N[C@@H]2C[C@H](CO)[C@@H](O)[C@H]2O)c1-c1nc2ccccc2s1` [Example 16, 5-(Benzo[d]thiazol-2-yl)-6-((1R,2S,3R,4R)-2,3-dihydroxy-4-(hydroxymethyl)cyclopentylamino)-2-(2,6-diazaspiro[3.3]heptan-2-yl)pyrimidin-4(3H)-one.HCl], under setting [1], the IC50 is 6.5 nM. Regarding `O=c1[nH]c(N2CCOCC2)nc(N[C@@H]2CCCNC2)c1-c1ccc(C2CC2)cn1` [Example 224, (R)-5-(5-cyclopropylpyridin-2-yl)-2-morpholino-6-(piperidin-3-ylamino)pyrimidin-4(3H)-one], the concentration for half-maximal inhibition (IC50) (read-out: IC50) is 512 nM. Regarding `O=c1[nH]c(N2CCOC(C(F)(F)F)C2)nc(N[C@@H]2CCCNC2)c1-c1nc2ccccc2s1` (stereo partly drawn) [Example 130, 5-(benzo[d]thiazol-2-yl)-6-((R)-piperidin-3-ylamino)-2-(2-(trifluoromethyl)morpholino)pyrimidin-4(3H)-one], the 50% inhibitory concentration (IC50) (read-out: IRAK4 IC50) amounted to 201 nM. Take `O=c1[nH]c(N2CCOCC2)nc(NC2CN3CCC2CC3)c1-c1nc2ccccc2s1` (centres unmarked) [Example 208, 5-(benzo[d]thiazol-2-yl)-2-morpholino-6-(quinolidin-3-ylamino)pyrimidin-4(3H)-one]: for the setting “read-out: IC50”, the IC50 is 50 nM.

Take `O=c1[nH]c(N2CCC(c3cccc(F)n3)CC2)nc(N[C@@H]2CCCNC2)c1-c1ccc2ccccc2n1` [Example 193, (R)-2-(4-(6-fluoropyridin-2-yl)piperidin-1-yl)-6-(piperidin-3-ylamino)-5-(quinolin-2-yl)pyrimidin-4(3H)-one]: the half-inhibitory concentration (IC50) (read-out: IRAK4 IC50) was determined as 45 nM. For the molecule `CN(c1nc(NC2CCCNC2)c(-c2nc3ccccc3s2)c(=O)[nH]1)[C@H]1CC[C@H](O)CC1` (stereo partly drawn) [Example 301, 5-(1,3-benzothiazol-2-yl)-2-[(4-hydroxycyclohexyl)(methyl)amino]-6-[[(3R)-piperidin-3-yl]amino]-3,4-dihydropyrimidin-4-one; trifluoroacetic acid], where the note is “read-out: IC50”, the 50% inhibitory concentration (IC50) turned out to be 390 nM.

Take `CC1CCCCN1c1nc(N[C@@H]2CCCNC2)c(-c2nc3ccccc3s2)c(=O)[nH]1` (some centres unmarked) [Example 314]: where the note is “read-out: IC50”, the IC50 was determined as 280 nM.

With `O=c1[nH]c(N2CCOCC2)nc(NCC2CCCCN2)c1-c1ccc2ccccc2n1` (centres unmarked) [Example 276, 2-morpholino-6-(piperidin-2-ylmethylamino)-5-(quinolin-2-yl)pyrimidin-4(3H)-one], where the note is “read-out: IC50”, the IC50 amounted to 340 nM. For `CCOC(=O)C1CN(c2nc(N[C@@H]3CCCNC3)c(-c3nc4ccccc4s3)c(=O)[nH]2)CCO1` (stereo partly drawn) [Example 321, ethyl 4-[5-(1,3-benzothiazol-2-yl)-6-oxo-4-[[(3R)-piperidin-3-yl]amino]-1,6-dihydropyrimidin-2-yl]morpholine-2-carboxylate; trifluoroacetic acid], the IC50 (read-out: IC50) came to 180 nM. For `O=c1[nH]c(N2CC[C@H](F)C2)nc(N[C@@H]2CCCNC2)c1-c1ccc2ccccc2n1` [Example 177, 2-((S)-3-fluoropyrrolidin-1-yl)-6-((R)-piperidin-3-ylamino)-5-(quinolin-2-yl)pyrimidin-4(3H)-one], the half-maximal inhibitory concentration (IC50) (read-out: IRAK4 IC50) came to 13 nM. For `CC(=O)NC1CCN(c2nc(N[C@@H]3CCCNC3)c(-c3nc4ccccc4s3)c(=O)[nH]2)CC1` [Example 333, N-[1-[5-(1,3-benzothiazol-2-yl)-6-oxo-4-[[(3R)-piperidin-3-yl]amino]-1,6-dihydropyrimidin-2-yl]piperidin-4-yl]acetamide trifluoroacetic acid], the concentration for half-maximal inhibition (IC50) (read-out: IC50) is 94 nM. Consider `O=c1[nH]c(N2CCOCC2)nc(N[C@@H]2CCCNC2)c1-c1nc2cccc(C(F)(F)F)c2s1` [Example 338, (R)-2-morpholino-6-(piperidin-3-ylamino)-5-(7-(trifluoromethyl)benzo[d]thiazol-2-yl)pyrimidin-4(3H)-one], for which, under setting [1], the IC50 was found to be 520 nM. Consider `O=c1[nH]c(N2CCC(Cn3cccn3)CC2)nc(N[C@@H]2C[C@H](CO)[C@@H](O)[C@H]2O)c1-c1nc2ccccc2s1` [Example 80, 2-(4-((1H-pyrazol-1-yl)methyl)piperidin-1-yl)-5-(benzo[d]thiazol-2-yl)-6-((1R,2S,3R,4R)-2,3-dihydroxy-4-(hydroxymethyl)cyclopentylamino)pyrimidin-4(3H)-one], for which, for the setting “unit inferred, read-out: IRAK4 IC50”, the IC50 came out at 119 nM.

For `O=c1[nH]c(N2CCC2)nc(N[C@@H]2C[C@H](CO)[C@@H](O)[C@H]2O)c1-c1nc2ccccc2s1` [Example 31, 2-(Azetidin-1-yl)-5-(benzo[d]thiazol-2-yl)-6-(((1R,2S,3R,4R)-2,3-dihydroxy-4-(hydroxymethyl)cyclopentyl)amino)pyrimidin-4(3H)-one.HCl], the IC50 under setting [1] came out at 67 nM.

On to `O=c1[nH]c(N2CCOCC2)nc(NC2CNC2)c1-c1nc2ccccc2s1` [Example 253, 6-[(azetidin-3-yl)amino]-5-(1,3-benzothiazol-2-yl)-2-(morpholin-4-yl)-3,4-dihydro-pyrimidin-4-one], for which the IC50 (read-out: IC50) was found to be 300 nM. Still for that read-out and setting: then `O=c1[nH]c(N2CCOCC2)nc(NCC2CCCCN2)c1-c1nc2ccccc2s1` (centres unmarked) [Example 254, 5-(1,3-benzothiazol-2-yl)-2-(morpholin-4-yl)-6-[(piperidin-2-ylmethyl)amino]-3,4-dihydro-pyrimidin-4-one], with 1600 nM.

With `O=c1[nH]c(N2CCOCC2)nc(NCCc2ncc[nH]2)c1-c1nc2ccccc2s1` [Example 264, 6-(2-(1H-imidazol-2-yl)ethylamino)-5-(benzo[d]thiazol-2-yl)-2-morpholino-pyrimidin-4(3H)-one], the IC50 (read-out: IC50) was 180 nM. For `COC1(C)CN(c2nc(N[C@@H]3CCCNC3)c(-c3ccc4ccccc4n3)c(=O)[nH]2)C1` [Example 176, (R)-2-(3-methoxy-3-methylazetidin-1-yl)-6-(piperidin-3-ylamino)-5-(quinolin-2-yl)pyrimidin-4(3H)-one], for the setting “read-out: IRAK4 IC50”, the IC50 was determined as 22 nM. Regarding `COC1CCN(c2nc(N[C@@H]3CCCNC3)c(-c3nc4ccccc4s3)c(=O)[nH]2)CC1` [Example 293, (R)-5-(benzo[d]thiazol-2-yl)-2-(4-methoxypiperidin-1-yl)-6-(piperidin-3-ylamino)pyrimidin-4(3H)-one], the concentration for half-maximal inhibition (IC50) (read-out: IC50) stood at 63 nM.
